Data on 19 compounds can be found in PubChem BioAssay AID192 (DTP/NCI, 2004).

SMILES strings stand for the structures. Where “and” joins values, the source holds several entries; their conditions need not be identical. Equal values may be shown once. Inconclusive results and toxic doses are left out. Numbered stars: 1 amine (or outer) side, 2 acyl side, 3 side chain; on linkers, the order of the positions; unused ones are H or OH. Peptide text beside a SMILES is read from it. ξ: configuration not given here. ξγGlu = O=C(O)C(CCC(=O)[*:2])N[*:1]

The experiment relates to BDF1 mice, B16 melanoma ip, median survival T/C. The experiment is described as follows: NCI In Vivo Anticancer Drug Screen. Data for tumor model B16 Melanoma (intraperitoneal) in B6D2F1 (BDF1) mice. The conditions noted are these: endpoint: median survival time, higher = longer survival. The essentials:
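Tumor-bearing mice received test compound or vehicle. Survival or tumor size was then measured in both groups. The treated-group figure was divided by the control-group figure.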

The mark [1] stands for this setting: dose: 6.25 mg/kg/injection, schedule: Q01DX009 (ip), vehicle: saline.
Where [2] appears, read: dose: 12.5 mg/kg/injection, schedule: Q01DX009 (ip), vehicle: saline.
Setting [3] is: dose: 25.0 mg/kg/injection, schedule: Q01DX009 (ip), vehicle: saline.
[4] abbreviates: dose: 50.0 mg/kg/injection, schedule: Q01DX009 (ip), vehicle: saline.
[5] abbreviates: dose: 100.0 mg/kg/injection, schedule: Q01DX009 (ip), vehicle: saline.
Where [6] appears, read: dose: 400.0 mg/kg/injection, schedule: Q01DX009 (ip), vehicle: saline.
[7] abbreviates: dose: 50.0 mg/kg/injection, schedule: Q01DX009 (ip), vehicle: Klucel (hydroxypropylcellulose) (HPC).
[8] abbreviates: dose: 100.0 mg/kg/injection, schedule: Q01DX009 (ip), vehicle: Klucel (hydroxypropylcellulose) (HPC).
Setting [9] is: dose: 200.0 mg/kg/injection, schedule: Q01DX009 (ip), vehicle: Klucel (hydroxypropylcellulose) (HPC).
The mark [10] stands for this setting: dose: 400.0 mg/kg/injection, schedule: Q01DX009 (ip), vehicle: Klucel (hydroxypropylcellulose) (HPC).

On to `COc1cc(C)c2c(c1C=O)Oc1c(c(C)c(O)c3c1C(O)OC3=O)OC2=O` (centres undefined), for which the T/C runs as follows: (dose: 3.12 mg/kg/injection, schedule: Q01DX009 (ip), vehicle: saline) 101 % of control; under setting [1], 94 % of control; under setting [2], 100 % of control; under setting [3], 101 % of control; under setting [4], 87 % of control.
Regarding `Cc1nc(N)nc(N)c1-c1ccc(Cl)c(Cl)c1`, the T/C reads like this: (dose: 0.25 mg/kg/injection, schedule: Q01DX009 (ip), vehicle: saline with Tween-80) 104 % of control; (dose: 0.5 mg/kg/injection, schedule: Q01DX009 (ip), vehicle: saline with Tween-80) 102 % of control; (dose: 0.62 mg/kg/injection, schedule: Q01DX009 (ip), vehicle: saline) 102 % of control; (dose: 0.75 mg/kg/injection, schedule: Q01DX009 (ip), vehicle: saline with Tween-80) 115 % of control; (dose: 1.0 mg/kg/injection, schedule: Q01DX009 (ip), vehicle: saline with Tween-80) 100 % of control; (dose: 1.0 mg/kg/injection, schedule: Q02DX009 (ip), vehicle: Klucel (hydroxypropylcellulose) (HPC)) 98 % of control. In addition, the T/C is 113 % of control (dose: 1.0 mg/kg/injection, schedule: Q02DX009 (ip), vehicle: saline with Tween-80); 107 % of control (dose: 1.25 mg/kg/injection, schedule: Q01DX009 (ip), vehicle: saline); 90 % of control (dose: 1.5 mg/kg/injection, schedule: Q04DX003 (ip), vehicle: saline with Tween-80); 120 % of control (dose: 2.0 mg/kg/injection, schedule: Q01DX009 (ip), vehicle: saline with Tween-80); 100 % of control (dose: 2.0 mg/kg/injection, schedule: Q02DX009 (ip), vehicle: Klucel (hydroxypropylcellulose) (HPC)); 119 % of control (dose: 2.0 mg/kg/injection, schedule: Q02DX009 (ip), vehicle: saline with Tween-80). Moreover, the T/C is 112 % of control (dose: 3.0 mg/kg/injection, schedule: Q01DX009 (ip), vehicle: saline with Tween-80); 90 % of control (dose: 3.0 mg/kg/injection, schedule: Q04DX003 (ip), vehicle: saline with Tween-80); 100 % of control (dose: 4.0 mg/kg/injection, schedule: Q02DX009 (ip), vehicle: Klucel (hydroxypropylcellulose) (HPC)); 96 % of control (dose: 4.0 mg/kg/injection, schedule: Q04DX003 (ip), vehicle: saline with Tween-80); 102 % of control (dose: 6.0 mg/kg/injection, schedule: Q04DX003 (ip), vehicle: saline with Tween-80); 121 % of control (dose: 8.0 mg/kg/injection, schedule: Q02DX009 (ip), vehicle: Klucel (hydroxypropylcellulose) (HPC)). Also, the T/C (dose: 8.0 mg/kg/injection, schedule: Q04DX003 (ip), vehicle: saline with Tween-80) was 97 % of control and the T/C (dose: 10.0 mg/kg/injection, schedule: Q04DX003 (ip), vehicle: saline with Tween-80) was 93 % of control.
Take `C1CC2CCC3CCCC4CCC(C1)C2C34` (centres undefined): the T/C (dose: 3.13 mg/kg/injection, schedule: Q01DX009 (ip), vehicle: saline with Tween-80) was 95 % of control and the T/C (dose: 6.25 mg/kg/injection, schedule: Q01DX009 (ip), vehicle: saline with Tween-80) is 89 % of control.
`NC(CCC(=O)NCC(=O)NCC(=O)O)C(=O)O` (stereo not drawn) (ξγGlu-Gly-Gly-OH): the T/C is, setting by setting: under setting [4], 106 % of control; under setting [5], 97 % of control; (dose: 200.0 mg/kg/injection, schedule: Q01DX009 (ip), vehicle: saline) 102 % of control; under setting [6], 91 % of control.
As to `C[CH2][Pb]([CH2]C)([CH2]C)[O]C(=O)CBr`, the T/C was 100 % of control (dose: 0.75 mg/kg/injection, schedule: Q01DX009 (ip), vehicle: Klucel (hydroxypropylcellulose) (HPC)); 112 % of control (dose: 1.5 mg/kg/injection, schedule: Q01DX009 (ip), vehicle: Klucel (hydroxypropylcellulose) (HPC)); 105 % of control and 113 % of control (dose: 3.0 mg/kg/injection, schedule: Q01DX009 (ip), vehicle: Klucel (hydroxypropylcellulose) (HPC)).
As for `NNC(=O)c1ccccn1`, the T/C (dose: 25.0 mg/kg/injection, schedule: Q01DX009 (ip), vehicle: water) is 106 % of control and the T/C (dose: 50.0 mg/kg/injection, schedule: Q01DX009 (ip), vehicle: water) is 113 % of control.
As for `COc1nc(=O)n(C2C=CC(=O)O2)cc1F` (centres undefined), the T/C was 101 % of control under setting [1]; 95 % of control under setting [2]; 89 % of control under setting [3]; 87 % of control under setting [4]; 91 % of control under setting [5].
On to `CCCCNC(C)C1(O)Cc2c(O)c3c(c(O)c2C(OC2CC(N)C(O)C(C)O2)C1)C(=O)c1c(OC)cccc1C3=O` (centres undefined), for which the T/C runs as follows: (dose: 50.0 mg/kg/injection, schedule: Q01DX001 (ip), vehicle: water) 114 % of control and 181 % of control and 204 % of control; (dose: 100.0 mg/kg/injection, schedule: Q01DX001 (ip), vehicle: water) 114 % of control and 263 % of control and 292 % of control; (dose: 200.0 mg/kg/injection, schedule: Q01DX001 (ip), vehicle: water) 117 % of control and 217 % of control and 293 % of control; (dose: 400.0 mg/kg/injection, schedule: Q01DX001 (ip), vehicle: water) 89 % of control.
Regarding `CC(=O)Nc1ccc(Cl)c(Cl)c1`, the T/C under setting [7] is 116 % of control and the T/C under setting [8] is 121 % of control.
With `O=c1[nH]/c(=C\c2ccc3c(c2)OCO3)c(=O)[nH]/c1=C\c1ccc2c(c1)OCO2`, the T/C runs as follows: (dose: 12.5 mg/kg/injection, schedule: Q01DX009 (ip), vehicle: carboxymethylcellulose (CMC)) 113 % of control; (dose: 25.0 mg/kg/injection, schedule: Q01DX009 (ip), vehicle: carboxymethylcellulose (CMC)) 100 % of control; (dose: 50.0 mg/kg/injection, schedule: Q01DX009 (ip), vehicle: carboxymethylcellulose (CMC)) 106 % of control; under setting [8], 86 % of control.
As for `CCCCN(CCCC)C(=O)c1[nH]cnc1/N=N\N(C)C`, the T/C is 110 % of control (dose: 12.5 mg/kg/injection, schedule: Q04DX003 (ip), vehicle: saline with Tween-80); 92 % of control (dose: 25.0 mg/kg/injection, schedule: Q04DX003 (ip), vehicle: saline with Tween-80); 117 % of control (dose: 50.0 mg/kg/injection, schedule: Q04DX003 (ip), vehicle: saline with Tween-80); 93 % of control (dose: 100.0 mg/kg/injection, schedule: Q04DX003 (ip), vehicle: saline with Tween-80).
Take `NC(=O)c1ccccc1NC(=O)Nc1ccccc1`: the T/C under setting [8] was 89 % of control, the T/C under setting [9] is 91 % of control and the T/C under setting [10] was 89 % of control.
For `O=C1CCCN1`, the T/C under setting [5] was 100 % of control and the T/C under setting [6] is 94 % of control.
For `CN1C(=O)C=CC1=O`, the T/C is 109 % of control (dose: 0.5 mg/kg/injection, schedule: Q02DX009 (ip), vehicle: saline); 99 % of control (dose: 1.0 mg/kg/injection, schedule: Q02DX009 (ip), vehicle: saline); 98 % of control (dose: 2.0 mg/kg/injection, schedule: Q02DX009 (ip), vehicle: saline); 90 % of control (dose: 4.0 mg/kg/injection, schedule: Q02DX009 (ip), vehicle: saline).
Take `Nc1c(Cl)cc(C(=O)NC2CC2)cc1Cl`: the T/C is 92 % of control under setting [1], 102 % of control under setting [2], 113 % of control under setting [3] and 97 % of control under setting [4].
For `CS(=O)(=O)OCCN(CCOS(C)(=O)=O)c1ccc(C=Nc2ccc3oc(=O)ccc3c2)cc1`, the T/C (dose: 6.25 mg/kg/injection, schedule: Q01DX009 (ip), vehicle: Klucel (hydroxypropylcellulose) (HPC)) is 120 % of control; the T/C (dose: 12.5 mg/kg/injection, schedule: Q01DX009 (ip), vehicle: Klucel (hydroxypropylcellulose) (HPC)) is 118 % of control; the T/C under setting [7] was 118 % of control.
With `COc1cc(C2N(c3ccccc3)CCN2c2ccccc2)cc(OC)c1OC`, the T/C is, setting by setting: under setting [8], 106 % of control; under setting [9], 103 % of control; under setting [10], 96 % of control.
As for `CCC1OC(=O)CC(O)C(C)C(OC2OC(C)CC(N(C)C)C2O)C(CC=O)CC(C)C(=O)/C=C/C2(C)OC2C1C` (centres undefined), the T/C by setting is: under setting [7], 88 % of control; under setting [8], 92 % of control.
`O=C1C(Br)C2CCC1C2C(=O)O` (centres undefined): the T/C is 111 % of control (dose: 100.0 mg/kg/injection, schedule: Q01DX009 (ip), vehicle: saline with Tween-80); 94 % of control (dose: 200.0 mg/kg/injection, schedule: Q01DX009 (ip), vehicle: saline with Tween-80); 89 % of control (dose: 400.0 mg/kg/injection, schedule: Q01DX009 (ip), vehicle: saline with Tween-80).
